The target of one assay is T1, HP1α (Homo sapiens, UniProt P45973).
T1 construct: HP1α—full length, amino acids 1-191; 6xHis (N); made in house; host or cells: LOBSTR cells (E. coli)
In words: In vitro droplet assay, small molecule partitioning into HP1α condensates. The assay is classed as binding. Here is the method:
Recombinant BFP, GFP, or mCherry fusion proteins were concentrated and desalted to an appropriate protein concentration and 125 mM NaCl using Amicon Ultra centrifugal filters (30K MWCO, Millipore). Recombinant protein was added too. […] The protein solution was immediately loaded onto glass bottom 384 well plate (Cellvis P384-1.5H-N) and imaged with an Andor confocal microscope with a 150× objective. Unless indicated, images presented are of droplets settled on the glass coverslip.
Drug and small molecule concentrations used in the droplet experiments are as follows:
To analyze in vitro droplet experiments, custom Python scripts using the scikit-image package were written to identify droplets and characterize their size, shape and intensity. […] After segmentation, mean intensity for each droplet was calculated while excluding pixels near the phase interface, and background-corrected by subtracting intensity of dark images of droplet formation buffer only. Droplets identified in the channel of the fluorescent protein from ten independent fields of view were quantified for each experiment. The maximum intensity of signal within the droplets was calculated for each channel, the maximum intensity in the drug channel was termed “maximum drug intensity”. […]

The next assay concerns the target T2, MED1 droplets (Homo sapiens, UniProt Q15648).
T2 construct: MED1—amino acids 600-1581; 6xHis (N); made in house; host or cells: LOBSTR cells (E. coli)
Put plainly: In vitro droplet drug chase out experiment. The assay is classed as binding. The following applies: 5 μM cisplatin-TR, 10 μM MED1, unlabeled compound 10, 100 or 500 μM. Here is the method: For chase-out experiments 5 μM labeled cisplatin-TR was added to a MED1 droplets reaction (10 μM MED1, 50 mM Tris-HCl pH 7.5, 10% glycerol, 1 mM DTT, 10% PEG) in order to form MED1 droplets concentrated with Cisplatin-TR. Unlabeled transplatin or unlabeled cisplatin (vehicle, 10 μM, 100 μM, or 500 μM) were added to the droplet mixture and the amount of labeled cisplatin-TR remaining in the droplet is measured after chase out. 100 μM fluorescent FLTX1 was added to a MED1 droplets reaction (10 μM MED1, 50 mM Tris-HCl pH 7.5, 10% glycerol, 1 mM DTT, 10% PEG) in order to form MED1 droplets concentrated with FLTX1.

The next assay concerns the target T3, MED1 condensates (Homo sapiens, UniProt Q15648).
T3 construct: MED1—amino acids 600-1581; 6xHis (N); made in house; host or cells: LOBSTR cells (E. coli)
Put plainly: FRAP of in vitro droplets with drug. The assay is classed as binding. The following applies: 5 μM TR-cisplatin, 10 μM protein, 125 mM NaCl, 10% PEG. Here is the method:
For FRAP of in vitro droplets, 5 pulses of laser at a 50 us dwell time was applied to the MED1 channel and 20 pulses of laser at a 100 μs dwell time was applied to the Cisplatin channel. Recovery was imaged on an Andor microscope every 1 s for the indicated time periods. Fluorescence intensity was measured using FIJI. Post bleach FRAP recovery data was averaged over 6 replicates for each channel.

Assay [1] deals with nuclear condensates in HCT116 cells. In words: Cisplatin treatment followed by live cell imaging, condensate score. The assay is classed as cell-based, human. The conditions noted are these: HCT116, 50 μM cisplatin, up to 12 hours. Here is the method:
HCT116 cells with the indicated GFP knock-in were plated at 35 k per well of a glass bottom 8-well chamber slide. Following incubation at 37° C. overnight, cells were treated with 50 uM cisplatin in DMEM or a 1:1000 dilution of DMSO for 12 hours. […] For representative images of each of the six tagged lines treated with vehicle or 50 μM cisplatin, cells were imaged on the Zeiss LSM 880 confocal microscope with Airyscan detector with 63× objective at 37° C. Nuclei were segmented from images of treated cells by custom Python scripts using the scikit-image, open-cv, and […] Python packages. Nuclei were segmented by median filter, thresholding, separated by the watershed algorithm, and labeled by the scikit-image label function. […] A grey-level co-occurrence matrix (GLCM) was then generated from the projected signal, and the 'correlation' texture property from the GLCM was calculated per nucleus. One-way ANOVA followed by Sidak's multiple comparisons test was performed on the correlation values across conditions using GraphPad Prism version 8.2.0 for Mac (www.graphpad.com). Finally, to derive the condensation score, these values were subtracted from 1.

“Also recorded” adds a separate entry of the source.

Results on one molecule are retold here after patent publication US20220390432A1, “METHODS OF CHARACTERIZING AND UTILIZING AGENT-CONDENSATE INTERACTIONS” (Whitehead Institute for Biomedical Research, priority 2019, published 2022).

T2 sequence (Q15648 600-1581): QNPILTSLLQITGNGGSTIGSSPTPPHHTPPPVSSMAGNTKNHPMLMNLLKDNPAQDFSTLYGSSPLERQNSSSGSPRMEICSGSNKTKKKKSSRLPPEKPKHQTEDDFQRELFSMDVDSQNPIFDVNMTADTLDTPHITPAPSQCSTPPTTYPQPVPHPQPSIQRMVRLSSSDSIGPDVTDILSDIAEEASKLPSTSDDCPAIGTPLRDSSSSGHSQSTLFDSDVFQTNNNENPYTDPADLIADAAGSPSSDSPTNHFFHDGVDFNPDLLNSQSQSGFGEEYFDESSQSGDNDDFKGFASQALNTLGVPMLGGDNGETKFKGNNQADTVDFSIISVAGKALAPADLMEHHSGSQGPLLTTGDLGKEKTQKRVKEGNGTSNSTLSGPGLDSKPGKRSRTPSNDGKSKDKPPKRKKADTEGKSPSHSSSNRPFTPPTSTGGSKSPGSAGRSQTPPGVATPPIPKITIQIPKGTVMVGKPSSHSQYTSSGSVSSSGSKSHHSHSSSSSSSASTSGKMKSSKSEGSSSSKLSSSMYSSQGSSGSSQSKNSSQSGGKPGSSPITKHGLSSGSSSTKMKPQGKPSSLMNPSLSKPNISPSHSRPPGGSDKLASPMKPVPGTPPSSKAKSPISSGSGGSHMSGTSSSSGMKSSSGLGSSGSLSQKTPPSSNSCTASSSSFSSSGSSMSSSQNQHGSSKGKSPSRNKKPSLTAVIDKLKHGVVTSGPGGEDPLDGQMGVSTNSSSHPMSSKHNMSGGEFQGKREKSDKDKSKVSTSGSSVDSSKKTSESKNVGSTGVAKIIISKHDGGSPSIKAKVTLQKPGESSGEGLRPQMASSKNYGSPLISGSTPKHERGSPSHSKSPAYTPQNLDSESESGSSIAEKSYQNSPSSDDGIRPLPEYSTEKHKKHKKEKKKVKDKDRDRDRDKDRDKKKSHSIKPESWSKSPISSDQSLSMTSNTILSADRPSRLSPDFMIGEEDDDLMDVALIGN
T1 sequence (P45973 whole entry, the tested form may be a part): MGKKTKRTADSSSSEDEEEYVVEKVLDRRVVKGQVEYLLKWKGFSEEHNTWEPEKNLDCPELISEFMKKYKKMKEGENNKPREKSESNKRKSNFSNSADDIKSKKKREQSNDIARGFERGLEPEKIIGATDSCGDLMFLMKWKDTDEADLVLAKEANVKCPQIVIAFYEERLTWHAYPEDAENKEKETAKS
T3 sequence (Q15648 600-1581): as the sequence (Q15648 600-1581) above

As for `N.N.[Cl][Pt][Cl]` [cisplatin], the “partitioning / incorporation into HP1α droplets” value at HP1α is recorded as “freely diffuses”. Moreover, the “chase out of cisplatin-TR from MED1 droplets by unlabeled compound” value at MED1 droplets (listed as unlabeled cisplatin) is reported as “able to chase out cisplatin-TR”; at MED1 droplets (listed as unmodified cisplatin) it was “could be chased out of the condensate”. Moreover, the “mobility in MED1 droplets (FRAP)” value at MED1 condensates was “highly mobile”. Moreover, the “effect on nuclear condensates in live cells” value was “selective and progressive reduction in MED1 condensates; also recorded: Dissolution of MED1 condensates” in assay [1]; “specifically disrupts MED1 and BRD4 condensates” in assay [1] (listed as Cisplatin).
